Laboratory results from patent publication US9989520B2, “Human hepatoma cell line HLCZ01 and uses thereof” (HUNAN PROVINCIAL TUMOR HOSPITAL, priority 2013, dated 2018).

B1: TRAIL (protein, UniProt P50591 1-281, looked up)
Tumor necrosis factor ligand …: MAMMEVQGGPSLGQTCVLIVIFTVLLQSLCVAVTYVYFTNELKQMQDKYSKSGIACFLKEDDSYWDPNDEESMNSPCWQVKWQLRQLVRKMILRTSEETISTVQEKQQNISPLVRERGPQRVAAHITGTRGRSNTLSSPNSKNEKALGRKINSWESSRSGHSFLSNLHLRNGELVIHEKGFYYIYSQTYFRFQEEIKENTKNDKQMVQYIYKYTSYPDPILLMKSARNSCWSKDAEYGLYSIYQGGIFELKENDRIFVSVTNEHLIDMDHEASFFGAFLVG
notes: TRAIL at the current phase II of clinical trail

Experiments:
hepatitis C virus = assay: α-interferon treatment of HCV-infected HLCZ01 cells (amount of HCV, quantitative PCR); assay type: cell-based, hepatitis C virus (in human hepatoma cell line HLCZ01); settings: with respect to doses of α-interferon and time (hours), FIG. 10
Procedure: FIG. 10 is a column diagram for the human hepatoma cell line HLCZ01 according to the above first embodiment of the present invention, illustrating the amount of HCV with respect to the amount of interferon used and time (hours).
1. The human hepatoma cell line HLCZ01 cells and Huh7.5 cells are placed on the 6-well cell culture plate (200,000/well). After 24 hours, the medium is replaced with medium containing 2% FBS, and the cells are infected by HCV. The medium is changed after 24 hours. Huh7.5 cells and human hepatoma cell line HLCZ01 are cultured for 1 day, 2 days, 3 days and 6 days respectively, and TRIZOL is used to extract total RNA from the above mentioned two cell lines at different time points after virus infection. One microgram of the total RNA is reversely transcribed into cDNA, and 1 μL of cDNA are used as templates for processing quantitative PCR.
(§1) According to the human hepatoma cell line HLCZ01 of the present invention, the human hepatoma cell line HLCZ01 can also be used for the preparation, screening or evaluating anti-HCV drugs. […] Therefore, the human hepatoma cell line HLCZ01 of the present invention can be used for the preparation, screening or evaluating the anti-HCV drugs.

hepatitis B virus = assay: α-interferon treatment of HBV-infected HLCZ01 cells (amount of HBV, quantitative PCR); assay type: cell-based, hepatitis B virus (in human hepatoma cell line HLCZ01); settings: based on amount of α-interferon added and processing time (days), FIG. 9
Procedure: FIG. 9 is a column diagram for the human hepatoma cell line HLCZ01 according to the above second embodiment of the present invention, illustrating the amount of HBV with respect to the amount of interferon used and time (days).
The human hepatoma cell line HLCZ01 is placed on the 60 mm culture plate. After 24 hours, the medium (DMEM medium) is replaced to the mixture of a supernatant of HepaG2.2.15 cells with a complete medium (1:1 by volume ratio), and then the human hepatoma cell line HLCZ01 is continuously cultured. The cells were passaged every 3 to 5 days. DNA from HBV-infected human hepatoma cell line HLCZ01 was isolated every three days. One microgram of DNA from HBV-infected HLCZ01 cells is used as template for processing quantitative PCR and HBV DNA level in the human hepatoma cell line HLCZ01 is detected.
as §1, with “evaluating the anti-HBV” for “evaluating anti-HCV”, “the anti-HBV” for “the anti-HCV”

HLCZ01 cells = assay: TRAIL sensitivity of HLCZ01 cells by flow cytometry; assay type: cell-based, human; settings: HLCZ01 cells treated with TRAIL, FIG. 11

Molecule	amount of virus in HCV-infected HLCZ01 cells (hepatitis C virus)	amount of HBV in the human hepatoma cell line HLCZ01 (hepatitis B virus)	death of the HLCZ01 cells (HLCZ01 cells)
α-interferon	able to reduce the amount of virus in HCV-infected HLCZ01 cells	able to reduce the amount of HBV in the human hepatoma cell line HLCZ01	–
B1	–	–	able to induce the death of the HLCZ01 cells
